Values after ≈ are worked out from the molar mass of the structure shown. Read-outs that look alike come from different tables or passages of the source.
What was measured:
HIV = experiment: Testing preparations against HIV in cell culture (infected human donor lymphocytes); type: cell-based; conditions: HIV-infected lymphocytes, 3 days; for MIC: Human immunodeficiency virus 1, 72 h, lowest concentration without giant cells; for IC50: Human immunodeficiency virus 1, Lymphocyte, 72 h, read-out: IC-50
Experimental: Testing preparations against HIV in cell culture
Description of the method
The complete medium additionally contains 20% foetal calf serum and 40 IU/ml recombinant interleukin 2.
Lymphocytes which have been isolated from fresh donor blood by means of Ficoll® gradient centrifugation are cultured, at 37° C. for 36 h and under 5% CO2, in complete medium in the added presence of […] phytohemagglutinin (Wellcome). After the addition of 10% DMSO, the cells are frozen at a cell density of 5×10^6 and stored in liquid nitrogen. For the experiment, the cells are thawed, washed in RPMI medium and cultured for 3-4 days in complete medium.
The preparations for testing were dissolved in DMSO at a concentration of 16.7 mg/ml and diluted to 1 mg/ml in complete medium. 0.4 ml of medium was initially introduced in 24-well multiwell plates. After 0.1 ml of the dissolved preparation had been added to the upper row of the plate, a geometrical dilution series was produced by transferring 0.1 ml on each occasion. Preparation-free controls always contained 0.4 ml of complete medium containing 0.5% DMSO.
Lymphocyte cultures having a cell count of 5×10^5 cells/ml were infected by adding a 1/50 volume of the supernatant from lymphocyte cultures infected with HIV. The titer of these culture supernatants was determined, by end point dilution, to be 1-5×10^6 infectious units/ml. After incubating at 37° C. for 30 min, the infected lymphocytes were centrifuged off and taken up once again in the same volume of medium. 0.6 ml of this cell suspension was added to each of the wells in the test plate. The assay mixtures were incubated at 37° C. for 3 days.
The infected cell cultures were examined under the microscope for the presence of giant cells, which indicate that the virus is multiplying actively in the culture. The lowest preparation concentration at which no giant cells appeared was defined as the inhibitory concentration against HIV (MIC value). As a control, the presence of HIV antigen in the supernatants from the culture plates was determined using a test for HIV antigen in accordance with the manufacturer's (Organon) instructions.

[1] = target: T1, HIV reverse transcriptase (Human immunodeficiency virus type 1 group M subtype B, UniProt P04585); experiment: Inhibition of HIV reverse transcriptase, scintillation proximity assay (SPA); type: biochemical; conditions: RT-SPA, 60 min, 37° C., read-out: Reverse Transcriptase Asaay IC-50 (converted)
T1 construct: purchased HT-Biotechnology LTD, Cambridge, UK; host or cells: E. coli
Experimental: Investigation of the ability of the substances to inhibit the HIV reverse transcriptase
The activity of the reverse transcriptase (RT) was measured by means of a scintillation proximity assay (SPA).
The reagent kit for the RT-SPA was obtained from Amersham/Buchler (Braunschweig). The RT enzyme (originating from HIV and cloned in E. coli) was provided by HT-Biotechnology LTD, Cambridge, UK.
The test was carried out in accordance with the supplier's (Amersham) methods manual--with the following modifications:
bovine serum albumin was added to the assay buffer to a final concentration of 0.5 mg/ml.
The test was carried out in Eppendorf reaction tubes using a mixture volume of […].
The supplier's RT concentrate (5000 U/ml) was diluted in 20 mM tris-HCl buffer; pH 7.2; 30% glycerol to an activity of 15 U/ml.
The assay mixtures were incubated for 60 min (at 37° C.).
After the reaction had been stopped and "developed" using the bead suspension, […] of assay mixture was transferred into 4.5 ml of 10 mM tris-HCl buffer; pH 7.4; 0.15M NaCl
and the tritium activity was measured in a β counter.
In order to carry out a preliminary test for inhibitor activity, the substances were dissolved in DMSO (stock solution concentration=1 mg/ml) and tested at 10^-1, 10^-2, 10^-3, etc. dilutions in DMSO.
In order to determine the IC50 values, the stock solutions of inhibitor were further diluted in 50 mM tris-HCl buffer, pH 8, and tested at suitable concentrations.
The concentration giving rise to 50% inhibition of the enzyme was ascertained from the graphic depiction of RT activity versus log Cinh.

| MIC (HIV; 37° C.) [µg/mL] | IC50 (HIV; unit as printed for compound 58) [µg/mL] | IC50 (HIV; unit as printed for compound 74) [µg/mL] | SMILES | IC50 (HIV; 37° C.) [µg/mL] | IC50 ([1]; molar value in parentheses) [nM] | IC50 [1] [nM] | IC50 ([1]; unit as printed for compound 59) [nM] |
| --- | --- | --- | --- | --- | --- | --- | --- |
| 0.2 (≈ 0.771 µM) | – | – | CCCC=C1c2cc(OC)ccc2NC(=O)C1(C)C [Compound 41, E/Z-4-n-butylene-3,4-dihydro-3,3-dimethyl-6-methoxyquinolin-2(1H)-one] | ~0.2 (≈ 0.771 µM) | – | – | – |
| 0.2 (≈ 0.771 µM) | – | – | COc1ccc2c(c1)C(=CC(C)C)C(C)(C)C(=O)N2 [Compound 43] | 0.05 (≈ 0.193 µM) | – | – | – |
| 0.2 (≈ 0.815 µM) | – | – | CCC=C1c2cc(OC)ccc2NC(=O)C1(C)C [Compound 44] | 0.06 (≈ 0.245 µM) | – | – | – |
| < 0.08 | – | – | CCOc1ccc2c(c1)C(=CC(C)C)C(C)(C)C(=S)N2 [Compound 47] | ~0.015 (≈ 0.0518 µM) | – | – | – |
| < 0.1 | – | – | CCC=C1c2ccccc2NC(=O)C1(CC)CC [Compound 50] | ~0.01 (≈ 0.0411 µM) | – | – | – |
| 0.1 (≈ 0.366 µM) | – | – | CCCC=C1c2cc(OCC)ccc2NC(=O)C1(C)C [Compound 54] | 0.05 (≈ 0.183 µM) | – | – | – |
| < 0.1 | ~0.02 (≈ 0.0696 µM) | – | CCOc1ccc2c(c1)C(=CCC(C)C)C(C)(C)C(=O)N2 [Compound 58] | – | – | – | – |
| – | – | – | CCCCCC=C1c2cc(OC)ccc2NC(=S)C1(C)C [Compound 64] | – | 109 | 109 | – |
| – | – | – | C=CC=C1c2cc(OC)ccc2NC(=S)C1(C)C [Compound 68] | – | – | ~38.6 | – |
| < 0.008 | – | – | CC/C=C1/c2cc(Cl)ccc2NC(=S)C1(C)C [Compound 72] | – | – | – | – |
| 0.04 (≈ 0.152 µM) | – | 0.02 (≈ 0.0758 µM) | CCC/C=C1/c2cc(Cl)ccc2NC(=O)C1(C)C [Compound 74, Z-4-n-butylene-6-chloro-3,4-dihydro-3,3-dimethylquinolin-2(1H)-one] | – | – | – | – |
| 0.2 (≈ 0.725 µM) | – | – | CCC=C1c2cc(Cl)ccc2NC(=O)C12CCCC2 [Compound 77] | ~0.03 (≈ 0.109 µM) | – | – | – |
| > 0.008 | – | – | CC1(C)C(=S)Nc2ccc(F)cc2C1=C1CCCC1 [Compound 143] | < 0.008 | – | – | – |

| SMILES | MIC (HIV; 37° C.) [µg/mL] | IC50 (HIV; unit as printed for compound 58) [µg/mL] | IC50 (HIV; unit as printed for compound 74) [µg/mL] | IC50 (HIV; 37° C.) [µg/mL] | IC50 ([1]; molar value in parentheses) [nM] | IC50 [1] [nM] | IC50 ([1]; unit as printed for compound 59) [nM] |
| --- | --- | --- | --- | --- | --- | --- | --- |
| CCCC=C1c2cc(OC)ccc2NC(=S)C1(C)C [Compound 42, E/Z-4-n-butylene-3,4-dihydro-3,3-dimethyl-6-methoxyquinolin-2(1H)-thione] | < 0.008 | – | – | 0.002 (≈ 0.00726 µM) | 9 | 9.44 | – |
| CCC=C1c2cc(OC)ccc2NC(=S)C1(C)C [Compound 45] | 0.004 (≈ 0.0153 µM) | – | – | 0.002 (≈ 0.00765 µM) | 9 | 9.18 | – |
| CCCC=C1c2ccccc2NC(=O)C1(CC)CC [Compound 48] | < 0.08 | – | – | ~0.01 (≈ 0.0389 µM) | 54 | 54.4 | – |
| CCCC=C1c2ccccc2NC(=S)C1(CC)CC [Compound 49] | < 0.02 | – | – | ~0.002 (≈ 0.00731 µM) | 24 | 25.6 | – |
| CCC=C1c2ccccc2NC(=S)C1(CC)CC [Compound 51] | 0.02 (≈ 0.0771 µM) | – | – | ~0.002 (≈ 0.00771 µM) | 23 | 23.1 | – |
| CCC1(CC)C(=O)Nc2ccccc2C1=CCC(C)C [Compound 52] | 0.02 (≈ 0.0737 µM) | – | – | ~0.004 (≈ 0.0147 µM) | 43 | 44.2 | – |
| CCC1(CC)C(=S)Nc2ccccc2C1=CCC(C)C [Compound 53] | 0.02 (≈ 0.0696 µM) | – | – | ~0.002 (≈ 0.00696 µM) | 44 | 45.2 | – |
| CCCC=C1c2cc(OCC)ccc2NC(=S)C1(C)C [Compound 55] | < 0.08 | – | – | ~0.006 (≈ 0.0207 µM) | 31 | 31.1 | – |
| CCOc1ccc2c(c1)C(=CCC(C)C)C(C)(C)C(=S)N2 [Compound 59] | < 0.02 | – | – | ~0.008 (≈ 0.0264 µM) | 46 | – | 46.1 |
| CCCC=C1c2cc(Cl)ccc2NC(=NO)C1(C)C [Compound 60] | 0.0016 (≈ 0.00574 µM) | – | – | ~0.0003 (≈ 0.00108 µM) | 12 | 10.8 | – |
